Results taken from patent US20250144178A1, “PHARMACEUTICAL COMPOSITION FOR CANCER TREATMENT COMPRISING FUSION PROTEIN INCLUDING IL-12 AND ANTI-FAP ANTIBODY AND ANTICANCER AGENT” (KANAPH THERAPEUTICS INC., priority 2022, published 2025).

What was measured:
HEK-Blue IL-12 cells = experiment: Signaling ability in IL-12 recognizing cells (STAT4 inducible SEAP reporter); assay type: cell-based, human; conditions: serial dilution from 4 nM, 24 hours, FIG. 18
Description: The HEK-Blue IL-12 cell line transformed with the IL-12 receptor gene and the STAT4 inducible SEAP reporter gene into HEK293 cells, which are human embryonic kidney fibroblasts, was obtained from Invivogen (San Diego, USA). The HEK-Blue IL-12 cells were maintained in DMEM (GIBCO) containing 10% FBS (GIBCO), 100 μg/ml Normocin and 1×HEK-Blue selection.
Specifically, the HEK-Blue IL-12 cell line, which is an IL-12 recognizing cell, was diluted to 2.8×10^5 cells/ml and dispensed at 180 μl/well. Recombinant human IL-12, T1.01m, T1.02m, T1.03m and T1.12m were suspended at 4 nM and diluted by serial dilution. HEK-Blue IL-12 cells were treated with the diluted recombinant human IL-12, T1.01m, T1.02m, T1.03m and T1.12m. After 24 hours of treatment, the cell supernatant was collected and mixed with QUANTI-Blue Solution (Invivogen) in a 96-well plate. The reporter expression level was measured at 620 nm using a spectrophotometer (Thermo Fisher).

[1] = test system: IL-12 receptor of human T cells; experiment: p-STAT4 signaling ability in human T cells (AlphaLISA); assay type: cell-based; conditions: anti-CD3 activated human T cells, 2 hours, FIG. 19; read-out: half maximal effective concentration (EC50), p-STAT4
Description: In order to identify whether when IL-12 binds to the IL-12 receptor of human T cells, IL-12 initiate signaling by inducing phosphorylation of STAT4, a signaling mediator, the human T cells activated with anti-CD3 (OKT3, Invitrogen) were analyzed using the AlphaLISA SureFire Ultra p-STAT4 (Tyr693) Assay Kit (PerkinElmer, Massachusetts, USA).
Specifically, human proteins IL-12, T1.01, T1.02, T1.03 and T1.12 were suspended at 100 ng/ml and diluted by serial dilution. The human T cells activated with anti-CD3 (OKT3, Invitrogen) were treated with the diluted recombinant human IL-12, T1.01, T1.02, T1.03 and T1.12. After 2 hours of treatment, the cells were lysed and treated with a reagent (PerkinElmer) that detects p-STAT4 (phosphorylated STAT4). pSTAT4 was detected at an excitation wavelength of 680 nm and an emission wavelength of 615 nm with a spectrophotometer.

human T cells = experiment: IFN-γ secretion in human T cells (ELISA); assay type: cell-based; conditions: anti-CD3 activated human T cells, 48 hours, FIG. 21
Description: For cytokine measurement, enzyme-linked immunosorbent assay (ELISA, R&D systems) was performed on the supernatant stored at −20° C. in the following steps:
(i) The capture antibody was diluted according to the Certificate of Analysis (CoA) and coated on a 96-well plate for 24 hours.
(ii) The wells were washed with a wash solution, and then blocking was performed for 1 hour with 1% BSA (Bovine serum albumin, Sigma) solution.
(iii) The wells were washed with a wash solution, and then the samples were treated for 2 hours.
(iv) The wells were washed with a wash solution, and then the detection antibody was diluted according to the Certificate of Analysis and aliquoted into the wells, and then the wells were treated therewith for 2 hours.
(v) The wells were washed with a wash solution, and then treated with streptavidin-HRP for 20 minutes.
(vi) The wells were washed with a wash solution, and then treated with a substrate solution for 20 minutes.
(vii) The wells were treated with a stop solution, and the absorbance was measured at 450 nm.
Specifically, the human T cells activated with anti-CD3 (OKT3, Invitrogen) were diluted to 5×10^5 cells/ml and dispensed in a 96-well plate at 200 μl/well. Recombinant human IL-12, T1.12, T1.01, T1.02 and T1.03 were diluted to 10 nM and dispensed at 20 μl/well. […]

EC50 [1]: 8.95 pM
Substance: recombinant human IL-12: Recombinant human IL-12 used as comparator in signaling and IFN-γ secretion tests [reference compound]
IL-12 recognition / STAT4 reporter gene expression (620 nm absorbance) (HEK-Blue IL-12 cells): IL-12 was recognized, and STAT4 expressed a reporter gene by inducing phosphorylation | average IFN-γ in supernatant (human T cells): 1,640 pg/ml
